# Assay results reported in patent publication US12466807B2, “Salt and crystal form of a FAK inhibitor” (Amplia Therapeutics Limited, priority 2019, dated 2025).
# “Also recorded” adds a separate entry of the source. Marks after values point to notes of the source that are not given here.
# Tests used:
# [1] = Dynamic/gravimetric vapour sorption (DVS/GVS) hygroscopicity; assay type: physicochemical; settings: for Hygroscopicity, mass uptake (DVS/GVS): at 90% R.H., 25° C.
# Method: Approximately 10-20 mg of sample was placed into a mesh vapour sorption balance pan and loaded into the DVS-1 dynamic vapour sorption balance by Surface Measurement Systems. The sample was subjected to a ramping profile from 40-90% relative humidity (RH) at 10% increments, maintaining the sample at each step until a stable weight had been achieved (dm/dt 0.004%, minimum step length 30 minutes, maximum step length 500 minutes) at 25° C. After completion of the sorption cycle, the sample was dried using the same procedure to 0% RH and then a second sorption cycle back to 40% RH. Two cycles were performed. The weight change during the sorption/desorption cycles were plotted, allowing for the hygroscopic nature of the sample to be determined. XRPD analysis was then carried out on any solid retained.
# Approximately 10-20 mg of sample was placed into a mesh vapour sorption balance pan and loaded into an IGASorp Moisture Sorption Analyser balance by Hiden Analytical. The sample was subjected to a ramping profile from 40-90% relative humidity (RH) at 10% increments, maintaining the sample at each step until a stable weight had been achieved (98% step completion, minimum step length 30 minutes, maximum step length 60 minutes) at 25° C. After completion of the sorption cycle, the sample was dried using the same procedure to 0% RH, and finally taken back to the starting point of 40% RH. Two cycles were performed. The weight change during the sorption/desorption cycles were plotted, allowing for the hygroscopic nature of the sample to be determined.
# [2] = Salt disproportionation studies; assay type: physicochemical; settings: for XRPD Result: solid after 24 h in deionized water
# Method: Salt disproportionation studies were carried out as follows: • Approximately 10-20 mg of Formula I free base, L-tartrate Pattern 1 were weighed into HPLC vials. • 1 mL deionized water was then added to each vial and the vials capped and shaken at ambient temperature for 24 hours. • After this time, the samples were transferred to centrifuge tubes with nylon filters (0.22 μm) and centrifuged for approximately 15 minutes. The isolated solids were analyzed by XRPD and the filtrates analyzed by HPLC for concentration determination and the pH of all the filtrates were measured with a pH meter.
# Hydration studies = assay type: physicochemical; settings: 24 h
# Method: Hydration studies were carried out as follows: • Approximately 10-20 mg of Formula I free base, L-tartrate Pattern 1, were weighed into 1.5 mL vials. • Water/acetone mixtures were prepared to give water activities of 0.281, 0.637 and 0.888. • The appropriate water/acetone mixture was then added to each vial to form a slurry and the vials capped and shaken at ambient temperature for 24 hours. • After this time, the slurries were transferred to centrifuge tubes containing nylon filters (0.22 μm) and centrifuged for 15 minutes. The isolated solids were analyzed by XRPD.
# [3] = Oral exposure (pharmacokinetics) in rats; assay type: in vivo, male Sprague Dawley rats; settings: rat
# Method: To compare the exposure of the compound of Formula I in male Sprague Dawley rats following oral administration of the free base and L-tartrate salt at a target dose of 20 mg/kg (as free base equivalent).
# Further details of the in-life, formulation and bioanalytical procedures together with the data analysis, are described in Appendix 1.
# In-Life • The exposure of Formula I was studied in overnight-fasted male Sprague Dawley rats that had access to water ad libitum throughout the pre- and post-dose sampling period, and access to food was re-instated 4 h post-dose. In-life details are provided in Table A1-1. • Samples of arterial blood and total urine were collected up to 48 h post-dose. Arterial blood was collected directly into borosilicate vials (at 4° C.) containing heparin, Complete® (a protease inhibitor cocktail) and potassium fluoride to minimise potential for ex vivo degradation of Formula I in blood/plasma samples. Once collected, blood samples were centrifuged, supernatant plasma was removed and stored frozen (−80° C.) until analysis by LC-MS.
# The extraction of the test compound from plasma samples was conducted using protein precipitation with acetonitrile. Both solution and plasma standards were freshly prepared, with each set of standards comprising at least seven different analyte concentrations. Solution standards were diluted from a stock solution (1 mg/mL in DMSO) with 50% acetonitrile in water. Plasma standards were prepared by spiking blank plasma (50 μL) with solution standards (10 μL) and the internal standard, diazepam (10 μL, 5 μg/mL).
# Plasma samples were similarly prepared, except that blank acetonitrile (10 μL) was added instead of solution standards. Protein precipitation was carried out by the addition of acetonitrile (120 μL), vortexing (20 s) and centrifugation (10,000 rpm) in a microcentrifuge for 3 minutes. The supernatant was subsequently separated and 3 μL injected directly onto the column for LC/MS analysis using conditions tabulated below. All plasma concentrations are expressed as the non-salt equivalent.
# Standard Calculations • Plasma concentration versus time data were analysed using non-compartmental methods (PKSolver Version 2.0). Standard calculations for each pharmacokinetic parameter are listed below.
# [formula] • AUCIV Area under the plasma concentration versus time profile from time zero to infinity after IV administration (reported previously: CDCO_FAK_11_031) • t1/2 Elimination half-life • λ2 Terminal elimination rate constant after IV administration • BA Oral bioavailability • AUCoral Area under the plasma concentration versus time profile from time zero to infinity after oral administration • Cmax Maximum plasma concentration observed after oral administration. • Tmax Time to achieve Cmax • Differences in pharmacokinetic parameters (t½, AUC, Cmax, Tmax and BA) between free base and L-tartrate salt were evaluated using an unpaired t-test testing for significance at α=0.05 (GraphPad Prism, version 7.01)
# [4] = Thermodynamic solubility studies; assay type: physicochemical; settings: for HPLC Conc: ca. 22° C.
# Method: Thermodynamic Solubility Studies were carried out as follows: • Approximately 10 mg of Formula I free base Pattern 1 and L-tartrate Pattern 1, were weighed into a 1.5 mL screw-cap vial. The appropriate buffer system was added to create a slurry and the vials were shaken at ambient temperature (ca. 22° C.) for approximately 24 hours. • After this time, the slurries were transferred to centrifuge tubes containing nylon filters (0.22 μm) and filtered using a centrifuge for ca. 10 minutes. The isolated solids were then analyzed by XRPD and the filtrates measured by a pH meter and analyzed by HPLC for concentration.
# [5] = listed as Formula I L-tartrate Pattern 1
# [6] = PO 20 mg/kg (free base equivalent), mean ± SD, n = 3, listed as L-Tartrate salt, 20 mg/kg
smiles,measurement,setting,value
COc1cc(C2CCN(C)CC2)ccc1Nc1ncc(C(F)(F)F)c(CCc2ccccc2CC(N)=O)n1 [L-Tartrate],Post-GVS XRPD,"[1]; after GVS humidity cycles, listed as Formula I L-tartrate Pattern 1",no changes to the XRPD pattern; also recorded: no change in form
same,"Hygroscopicity, mass uptake (DVS/GVS)",[1],Uptake of 0.6 wt %
same,"Hygroscopicity, mass uptake (DVS/GVS)",[1]; [5],0.6 wt %
same,Hygroscopic nature by GVS analysis,[1]; up to 90% RH,slightly hygroscopic
same,Salt disproportionation,"[2]; deionized water, 24 h",no evidence of disproportionation
same,Water pH Post-24 h,"[2]; deionized water, 24 h, ambient temperature, listed as L-Tartrate Pattern 1",3.43
same,XRPD Result,[2]; [5],L-tartrate Pattern 2
same,XRPD Result,[2]; listed as L-Tartrate Pattern 1,L-Tartrate Pattern 2
same,XRPD Result,"Hydration studies; Water Activity 0.281, water/acetone",Pattern 1
same,XRPD Result,"Hydration studies; Water Activity 0.637, water/acetone",Pattern 1
same,XRPD Result,"Hydration studies; Water activity 0.888, water/acetone, listed as L-Tartrate Pattern 1",Pattern 2 (hydrate)
same,XRPD Result,"Hydration studies; Water activity 0.888, water/acetone, listed as L-tartrate Pattern 1",L-tartrate Pattern 2
same,Apparent t1/2,[3]; [6],5.8 ± 0.2 h
same,BA,[3]; [6],71.3 ± 7.5 %
same,Plasma AUC0-inf,[3]; [6],14.6 ± 1.5* h*μM
same,Tmax,[3]; [6],5.7 ± 1 h
same,Cmax,"[3]; PO 20 mg/kg (free base equivalent), mean ± SD, n = 3, listed as L-Tartrate salt, 20 mg/kg, read-out: Plasma Cmax",1200 ± 300 nM
same,Cmax greater than the free base,[3]; PO 20 mg/kg,approximately 30%
same,Plasma AUC compared with the free base,[3]; PO 20 mg/kg,significantly higher
same,Adverse reactions or compound-related side effects,"[3]; PO 20 mg/kg, 48 h sampling period",No adverse reactions or compound-related side effects were observed
same,% Dose in urine (unchanged Formula I),"[3]; PO 20 mg/kg, pooled urine up to 48 h, listed as L-Tartrate salt, 20 mg/kg",0.341 ± 0.042%
same,AUC greater than the free base,"[3]; PO 20 mg/kg, P<0.05",~50%
same,N-demethylation metabolite of Formula I,"[3]; plasma and urine after PO 20 mg/kg, not quantified",detected in plasma and urine
same,Thermodynamic Solubility,[4]; Water,900 µg/mL
same,Thermodynamic Solubility,[4]; pH 1.0,300 µg/mL
same,HPLC Conc,"[4]; pH 1.0, 24 h slurry",0.3 mg/mL
same,XRPD Result,"[4]; pH 1.0, solid after 24 h slurry, listed as L-Tartrate Pattern 1",Possible HCl salt
same,XRPD Result,"[4]; pH 1.0, solid after 24 h slurry, listed as L-tartrate Pattern 1",possible HCl salt
same,pH Post-24 h Slurry,"[4]; pH 1.0, listed as L-Tartrate Pattern 1",1.87
same,Thermodynamic Solubility,[4]; pH 4.5,300 µg/mL
same,HPLC Conc,"[4]; pH 4.5, 24 h slurry, listed as L-Tartrate Pattern 1",0.3 mg/mL
same,XRPD Result,"[4]; pH 4.5, solid after 24 h slurry, listed as L-Tartrate Pattern 1",Pattern 2
same,pH Post-24 h Slurry,"[4]; pH 4.5, listed as L-Tartrate Pattern 1",3.99
same,Thermodynamic Solubility,[4]; pH 6.8,200 µg/mL
same,HPLC Conc,"[4]; pH 6.8, 24 h slurry",0.2 mg/mL
same,HPLC Conc,"[4]; pH 6.8, 24 h slurry, listed as L-Tartrate Pattern 1",0.2 mg/mL
same,XRPD Result,"[4]; pH 6.8, solid after 24 h slurry, listed as L-Tartrate Pattern 1",Pattern 2
same,pH Post-24 h Slurry,"[4]; pH 6.8, listed as L-Tartrate Pattern 1",4.43
same,HPLC Conc,"[4]; water, 24 h slurry, listed as L-Tartrate Pattern 1",0.9 mg/mL
same,XRPD Result,"[4]; water, solid after 24 h slurry, listed as L-Tartrate Pattern 1",Pattern 2
same,pH Post-24 h Slurry,"[4]; water, listed as L-Tartrate Pattern 1",3.43
